Results published in patent US8124770B2, “Fluorescent cellular markers” (priority 2009, dated 2012).
Like-named read-outs stand apart in the source and are kept apart here.

Tests used:
Format in all cases: cell-based, human
[1] = tested on: Epidermoid carcinoma A431 cells; assay: Cell cytotoxicity (growth inhibition) of BQS on A431 cells, Trypan Blue Exclusion; settings: 5 to 100 uM, read-out: IC50 (inhibition of 50% of the cell population)
Procedure: Regarding the cytotoxicity, in order to determine the cell cytotoxicity of the BQS, duplicates cultures of 5×10^6 cells were seeded in 25 cm^2 flasks. The final volume on each plate was 9 ml of modified RPMI 1640 that contained the cell aliquot, media and BQS of present invention. Cells were then incubated for 4 hours to allow cells to adhere to the flask. Cells were cultured for 48 hours with BQS at concentration ranging from 5 to 100 uM. A negative control treated with ultra pure water (vehicle) was included in each experiment. […] At the end of the exposure period, media was removed and cultures rinsed twice with phosphate buffered saline (PBS) for removal of the compounds in solution. Cells detached with 5% trypsin enzyme, centrifuged, resuspended in fresh media and counted through a cell viability protocol, such as the Trypan Blue Exclusion analysis. Cell survival was calculated and plotted against time with the Microsoft Excel® software.

[2] = tested on: caspases 3 and 7 in A431 cells; assay: Caspases 3 and 7 activation, Magic Red assay, on A431 cells; settings: 48 hours of exposure, Cisplatin 3 uM positive control
Procedure: D. et al 2004; Blanc, C. et al 2000) making Cisplatin and Staurosporine appropriate positive controls for this assay. Cell culture media, such as RPMI 1640, modified with additional nutrients and additives such as Fetal Bovine serum and antibiotic has been added to improve the cell replication and prevent bacterial contamination was employed. […] The final volume on each plate was 9 ml of modified RPMI 1640 that contained the cell aliquot, media and drug. […] At the end of the treatment time cells were washed with PBS, detached with 5% trypsin enzyme and centrifuged. Cells were counted and aliquots were stained for an hour with cresyl violet (fluorochrome). […] Apoptotic cells (red) were distinguished from non apoptotic (non-fluorescent) using the negative and positive controls as reference.

[3] = tested on: DNA and mitochondria of A431 tumor cells; assay: Intra cellular binding to organelles, wide-field fluorescence microscopy of A431 tumor cells; settings: fluorescence microscope (FIG. 11)
[4] = tested on: A431 tumor cells; assay: Auto-fluorescence on A431 tumor cells, inverted fluorescence microscopy; settings: at IC50 concentration, monitored through 72 hour period, Olympus CKX41
Procedure: Regarding the autofluorencense, Ellipticine was selected as a fluorescent positive control since it is a structural analog of ABQS's. The elipticine's IC50 dose in A431 was determine by treating A431 cell cultures (in duplicates) at concentrations ranging from 0 to 50 μM. The final volume on each plate was 9 mL of modified RPMI 1640 that contained the cell aliquot, media and drug. Cells were exposed to ABQS's and Ellipticine at their IC50 concentrations, incubated and monitored through a 72 hour period by inverted microscopy. An Olympus CKX41 inverted fluorescent microscope (50 w Hg lamp), with U filter; 40× objective. Photographs were obtained at 13-17 seconds of exposure using the Q Capture Software. Auto-fluorescent cells were distinguished from non-auto-fluorescent ones using the negative and positive controls as reference.

[5] = Homo sapiens, A-431, 48 hours exposure

CC[n+]1c2ccccc2n2c3ccc(N)cc3ccc21.[Cl-] [ABQ38, 3-amino-7-ethylbenzimidazo[3,2-a]quinolinium chloride]
IC50 ([1]; 48 hours exposure): 32 µM
Caspases 3 and 7 activation [2]: 51±1%
capacity to bind to cellular organelles [3]: bind to DNA and mitochondria
auto fluorescence in cells [4]: auto fluorescence

Cc1ccc2sc3ccc4cc([N+](=O)[O-])c(Cl)cc4[n+]3c2c1 [NBQ95, 2-Chloro-10-methyl-3-nitrobenzothiazolo[3,2-a]quinolinium chloride]
IC50 [1, 5]: 28 µM

7-Ethyl-3-nitrobenzimidazolo[3,2-a]quinolinium Chloride [NBQ38]
IC50 ([1]; 48 hours exposure): 36 µM
Caspases 3 and 7 activation [2]: 22±7%

N.N.[Cl][Pt][Cl] [Cisplatin, reference compound]
Caspases 3 and 7 activation [2]: 51±13%

Cc1ccc2sc3ccc4cc(N)c(Cl)cc4[n+]3c2c1.[Cl-] [ABQ95, 3-amino-2-chloro-10-methylbenzothiazolo[3,2-a]quinolinium chloride]
IC50 [1, 5]: 36 µM
Caspases 3 and 7 activation [2]: 46±6%
capacity to bind to cellular organelles [3]: bind to DNA and mitochondria
